In patent US8394399B2, “Drug-enhanced adhesion prevention” (Ethicon, Inc., priority 2004, dated 2013):
Where “and” joins values, the source holds several entries; their conditions need not be identical. Identical values can stand only once.

What was measured:
[1] = tested on: adhesion formation at the sidewall injury; test: Rabbit peritoneal sidewall adhesion model, 1 week dosing via Alzet miniosmotic pump; assay type: in vivo; parameters: key to Adhesion Tenacity: 0: No adhesions; 1: mild, easily dissectible adhesions; 2: moderate adhesions; non-dissectible, does not tear organ; 3: dense adhesions; non-dissectible, tears when removed; conditions: for Adhesion Area Percentage / Adhesion Tenacity: 10 microliter/hr over 7 days, sacrifice after 21 days, individual animals 1-7; for Adhesion Tenacity: score 0-3; for mean adhesion score: group mean of 7 rabbits, placebo control 100±0
Method: In the peritoneal sidewall model, rabbits were pre-anesthetized with 1.2 mg/kg acetylpromazine and anesthetized with a mixture of 55 mg/kg ketamine hydrochloride and 5 mg/kg xylazine intramuscularly. Following preparation for sterile surgery, a midline laparotomy was performed. A 3 cm×5 cm area of peritoneum and transversus abdominis muscle was removed on the right lateral abdominal wall. The cecum was exteriorized and digital pressure was exerted to create subserosal hemorrhages (trauma and loss of blood flow) over all cecal surfaces. The cecum was then returned to its normal anatomic position. Tranilast contained in a delivery vehicle as described below was placed in an Alzet® miniosmotic pump (Alza Corporation, Palo Alto, Calif.) to allow continuous release of the molecule through the postsurgical interval. The Alzet miniosmotic pump was placed in the subcutaneous space and a delivery tube connected the pump with the site of injury at the sidewall. Only the delivery vehicle was placed in the pump of control rabbits. The abdominal wall and skin were closed in a standardized manner.
After 21 days, the rabbits were sacrificed and the percentage of the area of the sidewall injury that was involved in adhesions was determined. In addition, the tenacity of the adhesion formed was scored using a system as follows:
With the sidewall model, an initial score to represent the overall extent of adhesions is given (0 to 3).
The percentage of a surface of the sidewall involved in adhesions to various organs are given in the tables below to quantify the overall adhesion score. A reduction in the area and the tenacity of the adhesions would be considered beneficial and efficacious.
(§1) The efficacy of Pemirolast in inhibiting adhesion formation was evaluated using a single pump, filled with one of three dosage levels of mg of Pemirolast per ml of delivery vehicle (0.625 mg/ml, 6.25 mg/ml or 62.5 mg/ml), or placebo control (saline). The drug was placed in an Alzet miniosmotic pump and delivered over 7 days at a rate of 10 microliter/hr. The animals were sacrificed after 21 days.

[2] = Necropsy observations in the sidewall adhesion study; assay type: in vivo, rabbit
Method: as §1
However, there was inflammation observed at the abdominal cavity in 1 of 7 and 3 of 7 rabbits at the medium and high dose of drug, respectively.

For `Cc1cccn2c(=O)c(-c3nnn[nH]3)cnc12` [Pemirolast, 9-methyl-3-(1H-tetrazol-5-yl)-4H-pyrido [1,2-α]pyrimidin-4-one potassium], the “Adhesion Area Percentage” value ([1]; 0.625 mg/ml in pump) was 80% (2×) and 100% (4×) and 70%, the “Adhesion Tenacity” value ([1]; 0.625 mg/ml in pump) was 1 (5×) and 2 (2×) and the mean adhesion score ([1]; 0.625 mg/ml) was 90.0±4.9. For the same compound, the “Adhesion Area Percentage” value ([1]; 6.25 mg/ml in pump) was 50% and 80% (2×) and 100% (2×) and 70% and 60%, the “Adhesion Tenacity” value ([1]; 6.25 mg/ml in pump) was 1 (6×) and 2 and the mean adhesion score ([1]; 6.25 mg/ml, p=0.007) was 77.1±7.1. The “Adhesion Area Percentage” value ([1]; 62.5 mg/ml in pump) was 70% (2×) and 50% (2×) and 80% (2×) and 100%, the “Adhesion Tenacity” value ([1]; 62.5 mg/ml in pump) was 2 (3×) and 1 (4×) and the mean adhesion score ([1]; 62.5 mg/ml, p=0.001) was 71.4±6.7. The “tenacity of the adhesions formed, relative to control” value ([1]; all dose groups, analysis of variance on the ranks) was “significant reductions”, the “area of adhesion formation, relative to control” value ([1]; sidewall model, reductions in the groups that received the higher doses) was “reduced the area of adhesion formation” and the “clinical signs associated with administration” value ([2]; at necropsy, all doses) was “no clinical signs”. For the same compound, the “inflammation observed at the abdominal cavity (rabbits affected)” value ([2]; high dose (62.5 mg/ml)) was 3 of 7 and the “inflammation observed at the abdominal cavity (rabbits affected)” value ([2]; medium dose (6.25 mg/ml)) was 1 of 7.
